Literature values in patent US20030004141A1, “Medical devices, compositions and methods for treating vulnerable plaque” (priority 2001, published 2003).

Conditions: general statement from cited pre-clinical and clinical studies

CNC(=O)[C@@H](NC(=O)[C@H](CC(C)C)[C@H](O)C(=O)NO)C(C)(C)C [marimastat]
in vivo toxicity: minimal in vivo toxicity
